Experimental data reported in patent publication US10689365B2, “Substituted 2-alkylimidazolylcarboxamides as pesticides” (Bayer CropScience Aktiengesellschaft, priority 2016, dated 2020).
Where two headings read alike, the source gives them in different places.

Legend:
Myzus persicae [1] = test: Myzus persicae - oral test (MYZUPE O); type: in vivo; details: read-out: % efficacy
Protocol: Myzus persicae—Oral Test (MYZUPE O)
(§1) Solvent: 100 parts by weight of acetone
(§2) To produce a suitable preparation of active compound, 1 part by weight of active compound is dissolved using the specified parts by weight of solvent and made up with water until the desired concentration is attained.
(§3) 50 μl of the active compound preparation are transferred into microtitre plates and made up to a final volume of 200 μl with 150 μl of IPL41 insect medium (33%+15% sugar). Subsequently, the plates are sealed with parafilm, which a mixed population of green peach aphids (Myzus persicae) within a second microtitre plate is able to puncture and imbibe the solution through it.
(§4) After the desired period of time, the efficacy in % is determined. 100% means that all the aphids have been killed; 0% means that no aphids have been killed.

Myzus persicae [2] = test: Myzus persicae - drench test (MYZUPE D), Savoy cabbage in soil; type: in vivo; details: 240 h, 10 dat, read-out: % efficacy
Protocol: Myzus persicae—Drench Test (MYZUPE D)
To produce a suitable active compound preparation, 1 part by weight of active compound is mixed with the specified amounts of solvent and emulsifier, and the concentrate is diluted with water to the desired concentration, it being necessary to include the volume of soil which is drenched in the calculation. It should be ensured that a concentration of 40 ppm of emulsifier in the soil is not exceeded. To produce further test concentrations, water is used for dilution.
Savoy cabbage (Brassica oleracea) in pots with soil and infested by all stages of the green peach aphid (Myzus persicae) is watered with an active compound preparation of the desired concentration.
as §4

Myzus persicae [3] = test: Myzus persicae - spray test (Chinese cabbage leaf discs); type: in vivo; details: Myzus persicae, foliar; application rate 500 g/ha, after 5-6 days; read-out: efficacy
Protocol: Myzus persicae—Spray Test
Solvent: 78 parts by weight of acetone • • 1.5 parts by weight of dimethylformamide
(§5) Emulsifier: alkylaryl polyglycol ether
(§6) To produce a suitable active compound preparation, 1 part by weight of active compound is dissolved using the stated parts by weight of solvent and made up with water containing an emulsifier concentration of 1000 ppm until the desired concentration is attained. To produce further test concentrations, the formulation is diluted with emulsifier-containing water.
Discs of Chinese cabbage leaves (Brassica pekinensis) infested by all stages of the green peach aphid (Myzus persicae) are sprayed with an active ingredient formulation of the desired concentration.
After 5-6 days, the efficacy in % is determined. 100% means that all the aphids have been killed; 0% means that no aphids have been killed.

Myzus persicae [4] = test: Myzus persicae - oral test; type: in vivo; details: Myzus persicae, po, 120 h; application rate 20 ppm, after 5 days; read-out: efficacy
Protocol: as §1, §2, §3
After 5 days, the efficacy in % is determined. 100% means that all the aphids have been killed; 0% means that no aphids have been killed.

Myzus persicae [5] = test: Myzus persicae - spray test (MYZUPE S), bell pepper plants; type: in vivo; details: 144 h, 6 dat, read-out: % efficacy
Protocol: Myzus persicae—Spray Test (MYZUPE S)
(§7) Solvent: 14 parts by weight of dimethylformamide
as §5
as §6, with “with” for “using”, “specified” for “stated”, “water. If the addition of ammonium salts or/and penetrants is required, these are each added in a concentration of 1000 ppm to the formulation solution.” for “water.”
Bell pepper plants (Capsicum annuum) severely infested with the green peach aphid (Myzus persicae) are treated by spraying with the active ingredient formulation in the desired concentration.
After the desired time, the kill in % is determined. 100% means that all the animals have been killed; 0% means that no animals have been killed.

Aphis gossypii = Aphis gossypii - spray test (APHIGO S), cotton plants; type: in vivo; details: 144 h, 6 dat, read-out: % efficacy
Protocol: Aphis gossypii—Spray Test (APHIGO S)
as §7, §5
as §6, with “water. If the addition of ammonium salts or/and penetrants is required, these are each added in a concentration of 1000 ppm to the formulation solution.” for “water.”
Cotton plants (Gossypium hirsutum) heavily infested by the cotton aphid (Aphis gossypii) are sprayed with an active ingredient formulation of the desired concentration.
After the desired time, the kill in % is determined. 100% means that all the aphids have been killed; 0% means that no aphids have been killed.

Myzus persicae [6] = test: Myzus persicae - spray test (MYZUPE), Chinese cabbage leaf discs; type: in vivo; details: foliar; for percent efficacy (aphid mortality) at 20 g/ha / Emax at 20 g/ha: 20 g of ai/ha; for percent efficacy (aphid mortality) at 100 g/ha: 100 g of ai/ha; for Emax at 20 g/ha: read-out: % efficacy
Protocol: Myzus persicae—Spray Test (MYZUPE)
Solvent: 78.0 parts by weight of acetone • • 1.5 parts by weight of dimethylformamide
as §5, §6
Discs of Chinese cabbage leaves (Brassica pekinensis) infested by all stages of the green peach aphid (Myzus persicae) are sprayed with an active compound preparation of the desired concentration.
as §4

[7] = log P by HPLC on reversed-phase (C18) columns, OECD Guideline 117; type: physicochemical; details: reversed-phase (C18) HPLC column
Protocol: The log P values were determined in accordance with OECD Guideline 117 (EC Directive 92/69/EEC) by HPLC (high-performance liquid chromatography) using reversed-phase (RP) columns (C18), by the following methods:
[a] The LC-MS determination in the acidic range was carried out at pH 2.7 with 0.1% aqueous formic acid and acetonitrile (contains 0.1% formic acid) as mobile phases; linear gradient from 10% acetonitrile to 95% acetonitrile.
[b] LC-MS determination in the neutral range was carried out at pH 7.8 with 0.001 molar aqueous ammonium hydrogencarbonate solution and acetonitrile as mobile phases; linear gradient from 10% acetonitrile to 95% acetonitrile.

[8] = acidic range, pH 2.7, 0.1% aqueous formic acid/acetonitrile, read-out: logP[a]
[9] = neutral range, pH 7.8, aqueous ammonium hydrogencarbonate/acetonitrile, read-out: logP[n]

chromatographic logP [7, 8] | chromatographic logP [7, 9] | SMILES | Emax at 4 ppm (Myzus persicae [1]; 120 h, 5 dat) | Emax at 0.16 ppm (Myzus persicae [2]) | pest or weed control at 500 g/ha (Myzus persicae [3]) | pest or weed control at 20 ppm (Myzus persicae [4]) | Emax at 0.16 ppm (Myzus persicae [5]) | percent kill (mortality) of aphids at a fixed dose at 0.8 ppm (Aphis gossypii) | percent kill (mortality) of aphids at a fixed dose at 4 ppm (Aphis gossypii) | percent efficacy (aphid mortality) at 20 g/ha (Myzus persicae [6]; 120 h, 5 dat) | percent efficacy (aphid mortality) at 100 g/ha (Myzus persicae [6]; 120 h, 5 dat) | Emax at 0.8 ppm (Aphis gossypii) | Emax at 4 ppm (Aphis gossypii) | Emax at 20 g/ha (Myzus persicae [6]; 120 h, 5 dat) | Emax at 4 ppm (Myzus persicae [1]; 144 h, 6 dat) | percent efficacy (aphid mortality) at 100 g/ha (Myzus persicae [6]; 144 h, 6 dat)
0.71 | 1.04 | CN(C(=O)c1cnc(CS(=O)(=O)CC2CC2)n1C)c1cccnc1 [Example I-1-48] | 100% | 90% | 100% | 100% | 99% | 100% | 100% | 100% | 100% | – | – | – | – | –
1.18 | 1.84 | CC(C)CSCc1ncc(C(=O)N(C)c2cccnc2)n1C [Example I-1-31, 2-[(isobutylsulphanyl)methyl]-N,1-dimethyl-N-(pyridin-3-yl)-1H-imidazole-5-carboxamide] | 100% | 95% | 100% | 100% | 99% | – | – | 90% | 90% | 100% | 100% | – | – | –
1.19 | 1.82 | CCN(C(=O)c1cnc(CSCC2CC2)n1C)c1cccnc1 [Example I-1-53] | 100% | 90% | 100% | 100% | 99% | 98% | – | 100% | 100% | – | 97% | – | – | –
1.42 | 2.06 | CN(C(=O)c1cnc(CSCC(C)(C)C)n1C)c1cccnc1 [Example I-1-36] | 100% | 80% | 90% | 100% | 75% | – | – | 90% | 90% | 98% | 98% | – | – | –
0.35 | 0.65 | CCS(=O)(=O)Cc1ncc(C(=O)N(C)c2cccnc2)n1C [Example I-1-28] | 100% | 95% | 100% | 100% | 95% | – | – | – | 90% | 98% | 100% | 100% | – | –
0.35 | 0.75 | CN(C(=O)c1cnc(Cn2nccn2)n1C)c1cccnc1 [Example I-1-47] | – | 90% | 100% | 100% | 90% | – | – | – | – | 100% | 100% | – | 100% | 90%
1.29 | 1.93 | CCN(C(=O)c1cnc(CSC(C)(C)C)n1C)c1cccnc1 [Example I-1-52] | 100% | 95% | 90% | 100% | 99% | – | 90% | – | 90% | – | – | 70% | – | –
0.71 | – | CCSCc1ncc(C(=O)N(CC)c2cccnc2)n1C [Example I-1-49] | 100% | 95% | 90% | 100% | 95% | – | – | 70% | 70% | 98% | 100% | – | – | –
0.76 | 1.5 | CC(C)SCc1ncc(C(=O)N(C)c2cccnc2)n1C [Example I-1-29, 2-[(Isopropylsulphanyl)methyl]-N,1-dimethyl-N-(pyridin-3-yl)-1H-imidazole-5-carboxamide] | 100% | 98% | 90% | 100% | 99% | – | – | – | 90% | 98% | 100% | – | – | –
1.32 | 2.05 | CCN(C(=O)c1cnc(CSCC(C)C)n1C)c1cccnc1 [Example I-1-51] | 100% | 98% | 100% | 100% | 99% | – | – | 90% | 90% | 99% | 99% | – | – | –
0.56 | 0.88 | CC(C)S(=O)(=O)Cc1ncc(C(=O)N(C)c2cccnc2)n1C [Example I-1-30, 2-[(Isopropylsulphonyl)methyl]-N,1-dimethyl-N-(pyridin-3-yl)-1H-imidazole-5-carboxamide] | 100% | 98% | 90% | 100% | 98% | – | – | 90% | 90% | 100% | 100% | – | – | –
-0.04 | 0.98 | CSCc1ncc(C(=O)N(C)c2cccnc2)n1C [Example I-1-26] | 100% | 90% | 100% | 100% | 95% | – | – | 90% | 90% | 30% | 98% | – | – | –
1.1 | 1.73 | CCN(C(=O)c1cnc(CSC(C)C)n1C)c1cccnc1 [Example I-1-50] | 100% | 98% | 90% | 100% | 100% | 90% | – | – | 90% | – | 95% | 70% | – | –
